Values quoted from earlier work, collected in patent publication US20190282591A1, “FINASTERIDE AND SILDENAFIL COMPOSITIONS AND APPLICATIONS” (BLUE GOOSE DRUGS INC., priority 2018, published 2019).
One block for each molecule: values may come before it.

How the values were obtained:
[1] = active metabolite accounts for about one-half
[2] = system: dihydrotestosterone (DHT) levels
5β-reductase (AKR1D1) = molecular target: T1, 5β-reductase (AKR1D1) (Homo sapiens, UniProt P51857); settings: compared with 5α-reductase type I
T1 sequence (P51857 1-326): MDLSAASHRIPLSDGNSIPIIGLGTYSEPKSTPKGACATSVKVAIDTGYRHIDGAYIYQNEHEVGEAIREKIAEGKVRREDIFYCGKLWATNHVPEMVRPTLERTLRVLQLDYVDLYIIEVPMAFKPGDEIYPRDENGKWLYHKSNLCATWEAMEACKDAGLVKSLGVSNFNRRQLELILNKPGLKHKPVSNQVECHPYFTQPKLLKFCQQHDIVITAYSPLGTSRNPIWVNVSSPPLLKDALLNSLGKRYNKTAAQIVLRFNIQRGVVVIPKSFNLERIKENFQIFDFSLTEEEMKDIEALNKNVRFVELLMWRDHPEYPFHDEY

[3] = molecular target: T2, 5α-reductase type I isoenzyme (Homo sapiens, UniProt P18405); settings: 5α-reductase type I vs type II
T2 sequence (P18405 1-259): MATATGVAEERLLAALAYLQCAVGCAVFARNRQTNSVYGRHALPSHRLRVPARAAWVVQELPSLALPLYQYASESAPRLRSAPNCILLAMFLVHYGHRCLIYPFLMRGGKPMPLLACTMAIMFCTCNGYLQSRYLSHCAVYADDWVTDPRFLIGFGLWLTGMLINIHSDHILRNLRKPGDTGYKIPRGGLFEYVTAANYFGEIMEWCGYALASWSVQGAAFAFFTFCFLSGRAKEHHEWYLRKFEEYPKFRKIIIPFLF

SMILES: CCCc1nn(C)c2c(=O)[nH]c(-c3cc(S(=O)(=O)N4CCN(C)CC4)ccc3OCC)nc12.O=C(O)CC(O)(CC(=O)O)C(=O)O [Sildenafil citrate, 5-[2-ethoxy-5-(4-methylpiperazin-1-yl)sulfonylphenyl]-1-methyl-3-propyl-4H-pyrazolo[4,3-d]pyrimidin-7-one; 2-hydroxypropane-1,2,3-tricarboxylic acid]
bioavailability after oral administration [1]: 40%

SMILES: C[C@]12C=CC(=O)N[C@@H]1CC[C@@H]1[C@@H]2CC[C@]2(C)[C@@H](C(=O)Nc3cc(C(F)(F)F)ccc3C(F)(F)F)CC[C@@H]12 [dutasteride]
reduction of DHT levels in the entire body ([2]; entire body): more than 99%

less inhibitory potency for type I as compared to type II [3]: more than 100 fold
SMILES: CC(C)(C)NC(=O)[C@H]1CC[C@H]2[C@@H]3CC[C@H]4NC(=O)C=C[C@]4(C)[C@H]3CC[C@]12C [finasteride, (5α,17β)-N-(1,1-dimethylethyl)-3-oxo-4-azaandrost-1-ene-17-carboxamide]
decrease in prostate DHT levels ([2]; prostate, where type II isoenzyme predominates): 85 to 90%
decrease in serum DHT levels ([2]; serum): 65 to 70%
affinity for 5β-reductase relative to 5α-reductase (5β-reductase (AKR1D1)): an order of magnitude less than 5α-reductase type I
